Laboratory results as given in US6426355B1, “Heterocyclic carboxamide-containing thiourea inhibitors of herpes viruses containing phenylenediamine group” (American Home Products, priority 1998, dated 2002).
Values after ≈ are worked out from the molar mass of the structure shown.

Legend:
[1] = system: HCMV recombinant mutant virus (RV145); test: HCMV microtiter plate assay (beta-glucuronidase reporter); format: cell-based, Human Cytomegalovirus; conditions: for IC50 (ug/ml) HCMV: HCMV in human foreskin fibroblasts; for IC50: Human betaherpesvirus 5, Fibroblast, read-out: IC50 (ug/ml) HCMV
Outline: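 Replication was read out as virus-encoded β-glucuronidase activity, measured with a chromogenic or fluorogenic glucuronide substrate in cell lysates at 96 h post-infection. Infection of human foreskin fibroblasts with RV145 took place with compound present. IC50 was derived from a range of inhibitor amounts.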

[2] = system: HSV-1; test: HSV Antiviral (ELISA) assay; format: cell-based; conditions: for IC50 (ug/ml) HSV: HSV-1 in Vero cells; for IC50: Human alphaherpesvirus 1, HSV-1 in Vero cells, read-out: IC50 (ug/ml) HSV
Protocol: Vero cells (ATCC #CCL-81) are plated on 96-well tissue culture plates at 3.5×10^4 cells per 100 μl tissue culture DMEM (Dulbecco's modified Eagle media) supplemented with 2% fetal bovine serum (FBS) in each well. After overnight incubation @ 37° C. (in 5% CO2) and 30 minutes prior to infection with HSV-1 (multiplicity of infection equal to 0.006), cells are either untreated, or treated with test compound (multiple concentrations) or reference standard drug control. After approximately 24 hours post-infection incubation @ 37° C. (in 5% CO2), cells are fixed for ELISA assay. The primary antibody is murine anti-HSV glycoprotein D monoclonal primary antibody and the secondary antibody is goat anti-mouse IgG linked to β-galactosidase. Thus the extent of viral replication is determined by assessing β-galactosidase activity by quantifying the generation of the 4-methyl umbelliferone fluorescent cleavage product after addition of the methyl umbelliferyl-β-D-galactoside (Sigma #M1633) substrate on a microfluorimeter (365 nm for excitation and 450 nm for emission). Antiviral activity (IC50) of the test compound is determined by comparing the flourescence obtained in absence of compound to that obtained in the presence of compound.

[3] = system: VZV strain Ellen; test: VZV Antiviral (ELISA) assay; format: cell-based; conditions: for IC50 (ug/ml) VZV / % inhibition 10 ug/ml VZV: VZV strain Ellen in HFF cells; for % inhibition 10 ug/ml VZV: at 10 ug/ml
Protocol: For the generation of stock VZV to be used in the assay, VZV strain Ellen (ATCC #VR-1367) is used to infect human foreskin fibroblast (HFF) cells at low multiplicity (less than 0.1) and incubated overnight at 37° C. in 5% CO2. After the overnight incubation, the mixture of uninfected and VZV-infected HFF infected cells are then harvested and added to each well of 96-well plates (3.5×10^4 cells in 100 μl DMEM supplemented with 2% FBS) which contain test compound or the reference standard drug control (in 100 μl DMEM supplemented with 2% FBS per well). These cells are incubated for three days at 37° C. in 5% CO2, then fixed for ELISA assay. The primary antibody is murine anti-VZV glycoprotein II monoclonal antibody (Applied Biosystems, Inc. #13-145-100) and the secondary antibody is goat anti-mouse IgG linked to β-galactosidase. Thus the extent of viral replication is determined by assessing β-galactosidase activity by quantifying the generation of the 4-methyl umbelliferone fluorescent cleavage product after addition of the methyl umbelliferyl-β-D-galactoside (Sigma #M1633) substrate on a microfluorimeter (365 nm for excitation and 450 nm for emission). Antiviral activity (IC50) of the test compound is determined by comparing the flourescence obtained in absence of compound to that obtained in the presence of compound.

SMILES	IC50 (ug/ml) HCMV [1] [µg/mL]	IC50 (ug/ml) HSV [2] [µg/mL]	other results
O=C(Nc1ccc(NC(=S)Nc2ccc3scnc3c2)cc1)c1ccco1 [Example 482]	0.3 (≈ 0.76 µM)	9 (≈ 22.8 µM)	IC50 (ug/ml) VZV [3]: >10 µg/mL; % inhibition 10 ug/ml VZV [3]: 33%
CN(C)c1cc(Cl)cc(NC(=S)Nc2ccc(NC(=O)c3csnn3)cc2)c1 [Example 522]	0.025 (≈ 0.0577 µM)	>10	IC50 (ug/ml) VZV [3]: >10 µg/mL; % inhibition 10 ug/ml VZV [3]: 32%
CN(c1ccc(NC(=S)Nc2ccc(NC(=O)c3csnn3)cc2)cc1Cl)C1CCN(Cc2ccccc2)C1 (centres unmarked) [Example 905, [1,2,3]Thiadiazole-4-carboxylic acid [4-(3-{4-[(1-benzyl-pyrrolidin-3-yl)-methyl-amino]-3-chloro-phenyl}-thioureido)-phenyl]-amide]			IC50 [1]: 0.3 µg/mL (≈ 0.519 µM); IC50 [2]: 4 µg/mL (≈ 6.92 µM); IC50 ([3]; Human alphaherpesvirus 3, VZV strain Ellen in HFF cells, read-out: IC50 (ug/ml) VZV): 2 µg/mL (≈ 3.46 µM); inhibition at 10 µg/mL ([3]; Human alphaherpesvirus 3, read-out: % inhibition 10 ug/ml VZV, at 10 ug/ml, VZV strain Ellen in HFF cells): 82%
O=C(Nc1ccc(NC(=S)Nc2cc(C(F)(F)F)cc(C(F)(F)F)c2)cc1)c1cscn1 [Example 701]	0.008 (≈ 0.0163 µM)	>10	
O=C(Nc1ccc(NC(=S)Nc2ccc(Cl)c(Cl)c2)cc1)c1cscn1 [Example 704]	0.006 (≈ 0.0142 µM)	>10	
O=C(Nc1ccc(NC(=S)Nc2ccc(Cl)c(C(F)(F)F)c2)cc1)c1cocn1 [Example 714]	0.02 (≈ 0.0454 µM)	>10	
O=C(Nc1ccc(NC(=S)NCc2cc(C(F)(F)F)ccc2F)cc1)c1cscn1 [Example 746]	0.005 (≈ 0.011 µM)	>10	
CC(C)(C)c1ccc(CNC(=S)Nc2ccc(NC(=O)c3cscn3)cc2)cc1 [Example 747]	0.002 (≈ 0.00471 µM)	>10	
O=C(Nc1ccc(NC(=S)NCc2ccc(Cl)cc2)cc1)c1csnn1 [Example 742]	0.009 (≈ 0.0223 µM)	>10	
COc1cc(OC)c(NC(=S)Nc2ccc(NC(=O)c3cnccn3)cc2)cc1Cl [Example 144]	10 (≈ 22.5 µM)	7 (≈ 15.8 µM)	
O=C(Nc1ccc(NC(=S)NCCc2c(Cl)cccc2Cl)cc1)c1csnn1 [Example 709]	0.05 (≈ 0.111 µM)	>10	
O=C(Nc1ccc(NC(=S)NCCc2cccc(C(F)(F)F)c2)cc1)c1csnn1 [Example 708]	0.005 (≈ 0.0111 µM)	>10	
O=C(Nc1ccc(NC(=S)NCCSc2ccccc2)cc1)c1ccco1 [Example 657]	0.04 (≈ 0.101 µM)	6 (≈ 15.1 µM)	
O=C(Nc1ccc(NC(=S)NCCc2ccccc2F)cc1)c1ccco1 [Example 738]	0.11 (≈ 0.287 µM)	>10	
O=C(Nc1ccc(NC(=S)NCCc2cccc(C(F)(F)F)c2F)cc1)c1csnn1 [Example 766]	0.006 (≈ 0.0128 µM)	>10	
O=C(Nc1ccc(NC(=S)NCCc2ccc(Cl)cc2)cc1)c1csnn1 [Example 685]	0.006 (≈ 0.0144 µM)	10 (≈ 23.9 µM)	
O=C(Nc1ccc(NC(=S)NCCc2ccc(F)cc2C(F)(F)F)cc1)c1csnn1 [Example 769]	0.04 (≈ 0.0852 µM)	>10	
O=C(Nc1ccc(NC(=S)Nc2ccccc2F)cc1)c1csnn1 [Example 748]	0.28 (≈ 0.75 µM)	>10	
O=C(NCc1ccc(Cl)c(Cl)c1)Nc1ccc(NC(=O)c2csnn2)cc1 [Example 90, [1,2,3]Thiadiazole-4-carboxylic acid {4-[3-(3,4-dichloro-benzyl)-ureido]-phenyl}-amide]			IC50 [1]: 0.07 µg/mL (≈ 0.166 µM); IC50 [2]: > 10 µg/mL

SMILES	IC50 (ug/ml) HCMV [1] [µg/mL]	IC50 (ug/ml) HSV [2] [µg/mL]	other results
O=C(Nc1ccc(NC(=S)NCCOc2cccc(I)c2)cc1)c1csnn1 [Example 750]	0.01 (≈ 0.019 µM)	>10	
O=C(Nc1ccc(NC(=S)NCCSc2cccc(Br)c2)cc1)c1csnn1 [Example 678]	0.005 (≈ 0.0101 µM)	>10	
O=C(Nc1ccc(NC(=S)NCCOc2cccc(Br)c2)cc1)c1csnn1 [Example 734]	0.009 (≈ 0.0188 µM)	>10	
O=C(Nc1ccc(NC(=S)NCCOc2cc(Cl)cc(Cl)c2)cc1)c1ccco1 [Example 665]	0.02 (≈ 0.0444 µM)	5 (≈ 11.1 µM)	
O=C(Nc1ccc(NC(=S)NCCNc2ccccc2)cc1)c1csnn1 [Example 706]	0.04 (≈ 0.1 µM)	>10	
O=C(Nc1ccc(NC(=S)NCCOc2cc(Cl)cc(Cl)c2)cc1)c1csnn1 [Example 688]	0.006 (≈ 0.0128 µM)	>10	
O=C(Nc1ccc(NC(=S)NCc2ccc(F)cc2)cc1)c1csnn1 [Example 741]	0.02 (≈ 0.0516 µM)	>10	
O=C(Nc1ccc(NC(=S)NCc2ccc(F)c(F)c2)cc1)c1ccco1 [Example 675]	0.05 (≈ 0.129 µM)	>10	
O=C(Nc1ccc(NC(=S)NCc2cccc(I)c2)cc1)c1csnn1 [Example 663]	0.01 (≈ 0.0202 µM)	>10	
O=C(Nc1ccc(NC(=S)Nc2cc(C(F)(F)F)cc(C(F)(F)F)c2)cc1)c1cocn1 [Example 715]	0.03 (≈ 0.0632 µM)	>10	
O=C(Nc1ccc(NC(=S)NCCOc2cc(C(F)(F)F)ccc2F)cc1)c1csnn1 [Example 737]	0.005 (≈ 0.0103 µM)	>10	
O=C(Nc1ccc(NC(=S)NCCOc2ccc(I)cc2)cc1)c1csnn1 [Example 694]	0.04 (≈ 0.0761 µM)	10 (≈ 19 µM)	
O=C(Nc1ccc(NC(=S)Nc2cc(Cl)cc(Cl)c2)cc1)c1cscn1 [Example 700]	0.004 (≈ 0.00945 µM)	>10	
CC(C)(C)c1ccc(CNC(=S)Nc2ccc(NC(=O)c3csnn3)cc2)cc1 [Example 690]	0.004 (≈ 0.0094 µM)	7 (≈ 16.4 µM)	
O=C(Nc1ccc(NC(=S)NCc2ccc(F)c(Cl)c2)cc1)c1csnn1 [Example 689]	0.007 (≈ 0.0166 µM)	7 (≈ 16.6 µM)	
O=C(Nc1ccc(NC(=S)NCCOc2ccc(Br)cc2)cc1)c1ccco1 [Example 697]	0.04 (≈ 0.0869 µM)	7 (≈ 15.2 µM)	
Cc1cc(CCNC(=S)Nc2ccc(NC(=O)c3csnn3)cc2)ccc1N(C)C [Example 692]	0.04 (≈ 0.0908 µM)	6 (≈ 13.6 µM)	
O=C(Nc1ccc(NC(=S)NCCc2ccc(F)c(C(F)(F)F)c2)cc1)c1csnn1 [Example 764]	0.004 (≈ 0.00852 µM)	>10	
